Measured values published in ChEMBL document CHEMBL1140099, “Identification of BRAF inhibitors through in silico screening” (J Med Chem, 2008).

biological target: T1, Serine/threonine-protein kinase B-raf (Homo sapiens, UniProt P15056)
T1 sequence (P15056 whole entry): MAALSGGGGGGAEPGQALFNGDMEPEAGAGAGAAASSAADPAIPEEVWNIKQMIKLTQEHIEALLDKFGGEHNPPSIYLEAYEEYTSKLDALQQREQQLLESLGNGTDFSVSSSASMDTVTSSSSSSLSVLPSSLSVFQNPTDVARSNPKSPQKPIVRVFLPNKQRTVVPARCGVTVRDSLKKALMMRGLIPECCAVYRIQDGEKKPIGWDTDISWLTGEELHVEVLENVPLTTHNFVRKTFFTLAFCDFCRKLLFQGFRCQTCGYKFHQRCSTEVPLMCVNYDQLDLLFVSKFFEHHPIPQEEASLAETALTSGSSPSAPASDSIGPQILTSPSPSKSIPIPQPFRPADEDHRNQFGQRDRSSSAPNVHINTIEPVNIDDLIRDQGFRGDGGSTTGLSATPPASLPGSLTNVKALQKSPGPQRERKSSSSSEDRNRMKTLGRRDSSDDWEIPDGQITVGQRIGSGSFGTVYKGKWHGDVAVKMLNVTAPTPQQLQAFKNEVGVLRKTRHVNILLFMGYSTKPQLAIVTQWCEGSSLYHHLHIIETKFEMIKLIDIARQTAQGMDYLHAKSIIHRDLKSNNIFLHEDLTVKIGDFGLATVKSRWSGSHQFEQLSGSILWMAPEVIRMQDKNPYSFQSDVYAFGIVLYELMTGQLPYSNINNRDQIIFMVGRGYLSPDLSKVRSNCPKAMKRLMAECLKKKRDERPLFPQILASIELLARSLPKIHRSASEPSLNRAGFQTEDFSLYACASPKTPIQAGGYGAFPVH
Description: Inhibition of human cloned wild type BRAF by ELISA-based MEK phosphorylation assay

IC50	SMILES
> 50 µM	Cn1c(=O)[nH]c(=O)c2c1nc(N/N=C\c1cccc([N+](=O)[O-])c1)n2Cc1ccccc1
> 100 µM	COc1ccc(OC)c(C(O)c2coc3ccc(O)c(CN4CCOCC4)c23)c1 (stereo not drawn)
57.7 µM	Cc1cc(C)n(-c2nc3c(c(=O)n(C)c(=O)n3C)n2Cc2ccccc2)n1
> 100 µM	COc1cc(C2C(C#N)=C(N)OC3=C2C(=O)CCC3)ccc1Cn1nc(C)c([N+](=O)[O-])c1C (stereo not drawn)
11.4 µM	C/C(=N/Nc1nc2c(c(=O)[nH]c(=O)n2C)n1Cc1ccccc1)c1ccccc1
> 100 µM	CC(=O)c1c(C)nn2c3ccccc3n(CCN3CCOCC3)c12
4.6 µM	C/C(=N/Nc1nc2c(c(=O)[nH]c(=O)n2C)n1Cc1ccccc1)c1ccc([N+](=O)[O-])cc1
57.9 µM	Cn1c(=O)[nH]c(=O)c2c1nc(N/N=C\c1ccc([N+](=O)[O-])cc1)n2Cc1ccccc1
> 100 µM	Cc1cc(C2C(C(=O)c3ccc4c(c3)OCCO4)=C(O)C(=O)N2CCCn2ccnc2)co1 (stereo not drawn)
> 100 µM	Cc1ccc(C2CC(c3ccccc3)=NN2C(=O)CN2CCOCC2)o1 (stereo not drawn)
> 100 µM	Cc1cccc(C)c1NC(=O)CSc1nnc(CN2CCOCC2)n1C
11.1 µM	Cn1c(=O)[nH]c(=O)c2c1nc(SCC(N)=O)n2Cc1cccc(Br)c1

The next lines start with the compound.

SMILES	IC50
C/C(Cl)=C/Cn1c(N/N=C(/C)c2ccc([N+](=O)[O-])cc2)nc2c1c(=O)[nH]c(=O)n2C	17.4 µM
CCN1CCN(Cc2nc3cc(Cl)ccc3n2Cc2ccccc2)CC1	> 100 µM
CSc1nc2c(c(=O)[nH]c(=O)n2C)n1Cc1ccccc1	30.1 µM
Cn1c(=O)n(Cc2ccccc2)c(=O)c2c1nc(SCCO)n2Cc1ccccc1	1.72 µM
CC1Nc2nc(NC(=O)c3ccc[n+](C)c3)[nH]c(=O)c2N(C(=O)c2ccc[n+](C)c2)C1C (stereo not drawn)	29.4 µM
CCN(CC)Cc1c(C(=O)N/N=C/c2ccco2)nnn1-c1nonc1N	> 100 µM
COc1ccccc1N1C(=O)CC(N2CCC(C(N)=O)CC2)C1=O (stereo not drawn)	> 100 µM
CN1CCN(Cc2c3c(c(CN4CCN(C)CC4)c4c2CCC4)CCC3)CC1	> 100 µM
COc1cccc(N2C(=O)CC(N3CCN(Cc4ccccc4)CC3)C2=O)c1 (stereo not drawn)	> 100 µM
C=CCn1c(N/N=C\c2cccc([N+](=O)[O-])c2)nc2c1c(=O)[nH]c(=O)n2C	37.5 µM
O=C(Cn1c2ccccc2n2ncnc12)c1cccs1	> 100 µM
COc1cc(/C=N/NC(=O)CN2CCN(c3ccc(F)cc3)CC2)ccc1O	> 100 µM
C/C(Cl)=C\CSc1nc2c(c(=O)n(Cc3ccccc3)c(=O)n2C)n1Cc1ccccc1	10.9 µM
C/C(Cl)=C\CSc1nc2c(c(=O)[nH]c(=O)n2C)n1CC(O)CCc1ccccc1 (stereo not drawn)	3.75 µM
CN1CCN(CC(=O)N2N=C(c3cccs3)CC2c2ccco2)CC1 (stereo not drawn)	> 100 µM
O=C(NC(C(=O)c1ccccc1)N1CCOCC1)c1cccs1 (stereo not drawn)	> 100 µM
COc1ccc(CN2CCCN(Cc3ccc(OC)cc3)C2c2cccc(C)n2)cc1	> 100 µM
COc1cccc(C2CC(C(F)(F)F)n3ncc(C(=O)Nc4ccc(OC)cc4OC)c3N2)c1 (stereo not drawn)	> 100 µM
Cn1c(=O)[nH]c(=O)c2c1[nH]c(=S)n2Cc1ccc(Cl)cc1	2.1 µM

biological target: T1, Serine/threonine-protein kinase B-raf; experiment: Inhibition of human cloned wild type BRAF at 50 uM by ELISA-based MEK phosphorylation assay

inhibition	SMILES
90%	Cn1c(=O)[nH]c(=O)c2c1nc(S)n2Cc1ccc(Cl)cc1

biological target: Phosphatidylinositol 4,5-bisphosphate 3-kinase catalytic subunit gamma isoform (Homo sapiens, UniProt P48736); experiment: Inhibition of human recombinant PI3Kgamma catalytic domain
Sequence (P48736 whole entry, the tested form may be a part, canonical isoform): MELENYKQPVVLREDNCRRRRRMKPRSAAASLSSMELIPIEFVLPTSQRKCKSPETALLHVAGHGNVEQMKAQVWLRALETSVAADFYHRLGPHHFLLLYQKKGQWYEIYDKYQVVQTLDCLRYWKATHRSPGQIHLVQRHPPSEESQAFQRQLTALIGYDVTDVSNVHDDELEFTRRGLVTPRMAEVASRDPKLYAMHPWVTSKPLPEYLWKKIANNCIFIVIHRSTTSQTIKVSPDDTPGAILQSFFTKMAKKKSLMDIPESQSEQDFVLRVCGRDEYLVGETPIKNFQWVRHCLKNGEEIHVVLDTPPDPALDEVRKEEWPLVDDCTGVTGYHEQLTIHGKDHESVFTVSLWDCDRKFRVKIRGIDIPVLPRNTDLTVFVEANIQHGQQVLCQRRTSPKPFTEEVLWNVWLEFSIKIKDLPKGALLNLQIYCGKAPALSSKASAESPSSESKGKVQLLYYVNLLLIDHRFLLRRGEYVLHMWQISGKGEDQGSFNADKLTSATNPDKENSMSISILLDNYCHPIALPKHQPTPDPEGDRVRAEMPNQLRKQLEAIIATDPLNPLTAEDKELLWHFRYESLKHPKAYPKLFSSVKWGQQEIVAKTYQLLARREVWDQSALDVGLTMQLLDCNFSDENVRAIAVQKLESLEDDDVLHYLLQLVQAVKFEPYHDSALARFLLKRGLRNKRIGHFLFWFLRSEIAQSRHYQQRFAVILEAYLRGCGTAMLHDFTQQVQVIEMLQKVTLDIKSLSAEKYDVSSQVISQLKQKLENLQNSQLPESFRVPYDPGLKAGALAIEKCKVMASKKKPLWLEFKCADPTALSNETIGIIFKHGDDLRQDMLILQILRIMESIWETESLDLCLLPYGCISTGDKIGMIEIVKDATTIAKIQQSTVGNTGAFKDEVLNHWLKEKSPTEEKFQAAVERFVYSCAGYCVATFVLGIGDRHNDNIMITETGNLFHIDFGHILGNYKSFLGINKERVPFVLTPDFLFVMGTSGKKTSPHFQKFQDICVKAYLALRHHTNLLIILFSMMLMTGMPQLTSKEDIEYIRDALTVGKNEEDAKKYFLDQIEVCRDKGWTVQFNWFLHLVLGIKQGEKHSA

IC50	SMILES
25 µM	Cn1c(=O)n(Cc2ccccc2)c(=O)c2c1nc(SCCO)n2Cc1ccccc1
